Experimental data as given in patent US8217035B2, “Pyrimidine derivatives used as PI-3-kinase inhibitors” (Novartis AG, priority 2006, dated 2012).

What follows are compounds tested against PI3 kinase alpha (Homo sapiens, UniProt P42336) (assay: PI3K ATP depletion assay (Biological Method 1, Assay 3; KinaseGlo luminescence)). Settings: not given.
Type: biochemical
Procedure: The PI3 kinase alpha IC50 values shown in Table 1 were determined according to the ATP depletion assay as disclosed herein in Biological Method 1.
Assay 3: ATP Depletion Assay
Compounds to be tested are dissolved in DMSO and directly distributed into a black 384-well plate at 1.25 μL per well. To start the reaction, 25 μL of 10 nM PI3 kinase and 5 μg/mL 1-alpha-phosphatidylinositol (PI) are added into each well followed by 25 μL of 2 μM ATP. The reaction is performed until approx 50% of the ATP is depleted, and then stopped by the addition of 25 μL of KinaseGlo solution purchased from Promega. The stopped reaction is incubated for 5 minutes and the remaining ATP is then detected via luminescence.

PI3 kinase alpha, sequence (P42336 whole entry): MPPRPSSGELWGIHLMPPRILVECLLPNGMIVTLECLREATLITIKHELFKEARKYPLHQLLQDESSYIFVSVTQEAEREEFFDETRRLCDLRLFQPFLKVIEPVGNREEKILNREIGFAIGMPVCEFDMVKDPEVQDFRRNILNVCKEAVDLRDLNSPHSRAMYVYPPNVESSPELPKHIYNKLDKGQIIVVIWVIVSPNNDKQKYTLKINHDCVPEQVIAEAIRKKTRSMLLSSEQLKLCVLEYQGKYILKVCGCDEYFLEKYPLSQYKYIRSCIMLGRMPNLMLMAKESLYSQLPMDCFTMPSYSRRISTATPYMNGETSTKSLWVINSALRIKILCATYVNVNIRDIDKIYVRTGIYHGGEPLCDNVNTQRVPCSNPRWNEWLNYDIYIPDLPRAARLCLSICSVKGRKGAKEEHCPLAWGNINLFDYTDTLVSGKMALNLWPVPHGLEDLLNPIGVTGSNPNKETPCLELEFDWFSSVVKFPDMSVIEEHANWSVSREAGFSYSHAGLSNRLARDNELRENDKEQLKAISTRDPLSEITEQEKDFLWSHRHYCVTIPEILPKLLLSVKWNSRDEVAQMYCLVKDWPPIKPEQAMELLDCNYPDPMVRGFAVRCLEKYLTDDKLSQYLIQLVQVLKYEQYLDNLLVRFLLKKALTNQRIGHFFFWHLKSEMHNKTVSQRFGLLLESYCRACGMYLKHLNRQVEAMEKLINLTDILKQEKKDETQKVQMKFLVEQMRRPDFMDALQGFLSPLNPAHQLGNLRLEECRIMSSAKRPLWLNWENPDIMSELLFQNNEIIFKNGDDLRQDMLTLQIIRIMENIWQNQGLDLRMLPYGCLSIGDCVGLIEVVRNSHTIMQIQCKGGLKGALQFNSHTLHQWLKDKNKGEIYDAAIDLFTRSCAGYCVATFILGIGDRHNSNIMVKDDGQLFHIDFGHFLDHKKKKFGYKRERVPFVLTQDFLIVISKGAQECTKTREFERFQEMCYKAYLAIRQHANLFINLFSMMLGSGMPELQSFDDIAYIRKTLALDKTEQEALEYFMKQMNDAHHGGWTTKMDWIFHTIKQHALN
PI3 kinase alpha, sequence (P27986 whole entry partner): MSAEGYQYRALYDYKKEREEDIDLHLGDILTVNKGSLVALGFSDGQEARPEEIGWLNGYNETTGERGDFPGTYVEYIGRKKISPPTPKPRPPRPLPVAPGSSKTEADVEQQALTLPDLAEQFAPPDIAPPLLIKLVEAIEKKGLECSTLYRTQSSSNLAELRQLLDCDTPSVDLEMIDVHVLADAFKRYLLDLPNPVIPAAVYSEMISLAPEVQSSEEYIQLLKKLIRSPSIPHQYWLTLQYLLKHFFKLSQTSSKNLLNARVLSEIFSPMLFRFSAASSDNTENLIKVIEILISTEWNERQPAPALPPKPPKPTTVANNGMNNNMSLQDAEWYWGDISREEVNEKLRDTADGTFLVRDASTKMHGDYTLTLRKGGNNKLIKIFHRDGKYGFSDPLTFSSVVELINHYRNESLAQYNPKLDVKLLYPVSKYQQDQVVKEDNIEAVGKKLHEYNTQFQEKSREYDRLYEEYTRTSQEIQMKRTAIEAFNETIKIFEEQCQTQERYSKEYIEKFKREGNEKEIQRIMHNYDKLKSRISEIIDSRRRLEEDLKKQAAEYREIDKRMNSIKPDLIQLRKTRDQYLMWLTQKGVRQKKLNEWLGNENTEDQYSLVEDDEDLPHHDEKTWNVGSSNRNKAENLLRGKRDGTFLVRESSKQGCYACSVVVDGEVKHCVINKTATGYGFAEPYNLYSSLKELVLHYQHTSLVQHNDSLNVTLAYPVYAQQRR

SMILES | IC50 [nM]
Cc1c(Nc2cnc3ccccc3c2)nc(N2CCOCC2)nc1-c1cnc(N)cc1C(F)(F)F [Compound 469] | < 1000

Same assay, conditions: ATP depletion assay, Biological Method 1; read-out: PI3 Kinase Alpha, IC50

SMILES | IC50 [nM]
Nc1ccc(-c2cc(Nc3ccccc3C(F)(F)F)nc(N3CCOCC3)n2)cn1 [Compound 379] | < 1000
CN1CCC(Oc2ccc(-c3cc(-c4ccc(N)nc4)nc(N4CCOCC4)n3)cn2)CC1 [Compound 226] | < 1000
Nc1ccc(-c2cc(Sc3ncc[nH]3)nc(N3CCOCC3)n2)cn1 [Compound 296] | < 10000
CC(=O)Nc1ccccc1Nc1cc(-c2ccc(N)nc2)nc(N2CCOCC2)n1 [Compound 353] | < 10000
Nc1ccc(-c2cc(C(=O)N3CCNCC3)nc(N3CCOCC3)n2)cn1 [Compound 224] | < 10000
Nc1ncc(-c2cc(C(=O)O)nc(N3CCOCC3)n2)cn1 [Compound 236] | < 1000
Nc1ccc(-c2cc(NC(=O)C3CCCCC3)nc(N3CCOCC3)n2)cn1 [Compound 298] | < 1000
NC(=O)c1cc(-c2cnc(N)nc2)nc(N2CCOCC2)n1 [Compound 229] | < 1000
Nc1ccc(-c2cc(N3CCc4ccccc4C3)nc(N3CCOCC3)n2)cn1 [Compound 375] | < 1000
Nc1ccc(-c2cc(-c3nnn[nH]3)nc(N3CCOCC3)n2)cn1 [Compound 309] | < 1000
Nc1ccc(-c2cc(Nc3cccc4cn[nH]c34)nc(N3CCOCC3)n2)cn1 [Compound 346] | < 1000
Nc1ccc(-c2cc(Nc3ccc4c(c3)NC(=O)CO4)nc(N3CCOCC3)n2)cn1 [Compound 381] | < 1000
CS(=O)(=O)c1ccccc1Nc1cc(-c2cnc(N)cc2C(F)(F)F)nc(N2CCOCC2)n1 [Compound 240] | < 1000
Cn1cnnc1Sc1cc(-c2ccc(N)nc2)nc(N2CCOCC2)n1 [Compound 293] | < 10000
CN(C)CCOc1ccc(-c2cc(-c3ccc(N)nc3)nc(N3CCOCC3)n2)cn1 [Compound 225] | < 1000
Nc1ccc(-c2cc(Nc3cc4ccccc4nc3OCCN3CCCC3)nc(N3CCOCC3)n2)cn1 [Compound 286] | < 10000
CN(c1cc(-c2ccc(N)nc2)nc(N2CCOCC2)n1)C1CCCCC1 [Compound 372] | < 10000
Nc1ncc(-c2cc(N3CCC(C(F)(F)F)CC3)nc(N3CCOCC3)n2)cn1 [Compound 391] | < 1000
Nc1ccc(-c2cc(NC3CCCCC3)nc(N3CCOCC3)n2)cn1 [Compound 373] | < 10000
Nc1ccc(-c2cc(N3CCOC(c4cccnc4)C3)nc(N3CCOCC3)n2)cn1 (stereo not shown) [Compound 340] | < 1000

SMILES | IC50 [nM]
Nc1ncc(-c2cc(N[C@H]3CCCC[C@@H]3OCc3ccccc3)nc(N3CCOCC3)n2)cn1 [Compound 395] | < 1000
Nc1ccc(-c2cc(-c3ccc(F)nc3)nc(N3CCOCC3)n2)cn1 [Compound 228] | < 1000
N#Cc1cc(-c2cc(Nc3cnc4ccccc4c3)nc(N3CCOCC3)n2)cnc1N [Compound 366] | < 10000
Nc1ccc(-c2cc(-c3c[nH]nn3)nc(N3CCOCC3)n2)cn1 [Compound 310] | < 1000
Nc1ccc(-c2cc(N3CCCc4ccccc43)nc(N3CCOCC3)n2)cn1 [Compound 382] | < 1000
Nc1cc(C(F)(F)F)c(-c2nc(N3CCOCC3)nc(N3CCOCC3)c2Cl)cn1 [Compound 312] | < 1000
CC(=O)Nc1cnc(N2CCOCC2)nc1-c1ccc(N)nc1 [Compound 257] | < 10000
Nc1ncc(-c2cc(Nc3cnc4ccccc4c3)nc(N3CCOCC3)n2)c(OCCN2CCNCC2)n1 [Compound 272] | < 1000
Nc1cc(C(F)(F)F)c(-c2cc(N3CCOC4(CCCC4)C3)nc(N3CCOCC3)n2)cn1 [Compound 319] | < 1000
CN(C)c1cc(-c2ccc(N)nc2)nc(N2CCOCC2)n1 [Compound 370] | < 10000
Nc1ccc(-c2cc(N3CCNC(=O)C3)nc(N3CCOCC3)n2)cn1 [Compound 376] | < 10000
CC(=O)Nc1cnc(N2CCOCC2)nc1-c1cnc(N)nc1 [Compound 256] | < 1000
Nc1ncc(-c2cc(Nc3cnc4ccccc4c3)nc(N3CCOCC3)n2)cc1S(N)(=O)=O [Compound 222] | < 10000
COc1ccc(Nc2cc(-c3ccc(N)nc3)nc(N3CCOCC3)n2)cc1OC [Compound 388] | < 1000
Nc1ccc(-c2cc(Nc3cccc4c3OCCO4)nc(N3CCOCC3)n2)cn1 [Compound 389] | < 1000
Nc1cc(C(F)(F)F)c(-c2cc(Nc3cc(C(F)(F)F)ccn3)nc(N3CCOCC3)n2)cn1 [Compound 243] | < 1000
Nc1ccc(-c2cc(NC3CCOCC3)nc(N3CCOCC3)n2)cn1 [Compound 374] | < 10000
Nc1ncc(-c2cc(N[C@@H]3CCCC[C@H]3OCc3ccccc3)nc(N3CCOCC3)n2)cn1 [Compound 397] | < 1000
Cc1cc(-c2cc(Nc3cnc4ccccc4c3)nc(N3CCOCC3)n2)cnc1N [Compound 365] | < 10000

Same assay, conditions: ATP depletion assay; read-out: PI3 Kinase Alpha, IC50

SMILES | IC50 [nM]
Nc1ccc(-c2cc(NCCc3ccncc3)nc(N3CCOCC3)n2)cn1 [Compound 435] | < 10000
Nc1ccc(-c2cc(NCc3ccncc3)nc(N3CCOCC3)n2)cn1 [Compound 443] | < 1000
CC(=O)NCCNC(=O)c1cnc(N2CCOCC2)nc1-c1cnc(N)nc1 [Compound 423] | < 10000
Nc1ccc(-c2cc(-c3ccc(NCCN4CCCC4)nc3)nc(N3CCOCC3)n2)cn1 [Compound 506] | < 1000
Nc1cc(C(F)(F)F)c(-c2cc(CNC(=O)OC3CCOC3)nc(N3CCOCC3)n2)cn1 (stereo not shown) [Compound 542] | < 1000
Nc1cc(C(F)(F)F)c(-c2cc(N3CCOCC3c3ccc(F)cc3)nc(N3CCOCC3)n2)cn1 (stereo not shown) [Compound 485] | < 1000
Nc1ncc(-c2cc(N[C@@H]3CCC[C@H]3OCc3ccccc3)nc(N3CCOCC3)n2)cn1 [Compound 398] | < 1000
Nc1ncc(-c2nc(N3CCOCC3)ncc2C(=O)N2CCOCC2)cn1 [Compound 429] | < 10000
CS(=O)(=O)Nc1cc(N)ncc1-c1cc(Nc2cnc3ccccc3c2)nc(N2CCOCC2)n1 [Compound 492] | < 1000
CC(=O)N1CC[C@@H](Oc2cc(-c3cnc(N)cc3C(F)(F)F)nc(N3CCOCC3)n2)C1 [Compound 23] | < 1000
Nc1ncc(-c2cc(N[C@H]3CN4CCC3CC4)nc(N3CCOCC3)n2)cn1 [Compound 519] | < 1000
Nc1ccc(-c2ccnc(N3CCOCC3)n2)cn1 [Compound 513] | < 1000
Nc1cc(C(F)(F)F)c(-c2cc(N3CCC(F)CC3)nc(N3CCOCC3)n2)cn1 [Compound 487] | < 1000
CC(C)OC(=O)N1CC[C@@H](Oc2cc(-c3cnc(N)cc3C(F)(F)F)nc(N3CCOCC3)n2)C1 [Compound 538] | < 1000
Nc1ncc(-c2nc(N3CCOCC3)ncc2C(=O)NC2CCOCC2)cn1 [Compound 426] | < 10000
CN(C)c1ncccc1-c1cc(-c2ccc(N)nc2)nc(N2CCOCC2)n1 [Compound 504] | < 10000
Nc1ccc(-c2cc(NCc3cccnc3)nc(N3CCOCC3)n2)cn1 [Compound 445] | < 1000
Cc1nc(N)ncc1-c1cc(Cl)nc(N2CCOCC2)n1 [Compound 479] | < 1000
CC(C)C(=O)N1CC[C@@H](Oc2cc(-c3cnc(N)cc3C(F)(F)F)nc(N3CCOCC3)n2)C1 [Compound 537] | < 1000
COc1ccc(Nc2cc(-c3ccc(N)nc3)nc(N3CCOCC3)n2)cn1 [Compound 2] | < 1000

SMILES | IC50 [nM]
Nc1ccc(-c2cc(-c3cccnc3N3CCN(CCO)CC3)nc(N3CCOCC3)n2)cn1 [Compound 498] | < 10000
COCCNC(=O)c1cnc(N2CCOCC2)nc1-c1cnc(N)nc1 [Compound 424] | < 10000
Nc1ncc(-c2nc(N3CCOCC3)ncc2C(=O)O)cn1 [Compound 430] | < 10000
Nc1cc(C(F)(F)F)c(-c2cc(O[C@@H]3CCN(C(=O)c4ccccc4)C3)nc(N3CCOCC3)n2)cn1 [Compound 536] | < 1000
Nc1ncc(-c2cc(O[C@@H]3CCCN(C(=O)c4ccc(F)cc4)C3)nc(N3CCOCC3)n2)c(N)n1 [Compound 525] | < 1000
Nc1cc(C(F)(F)F)c(-c2cc(O[C@@H]3CCN(C(=O)OCc4ccccc4)C3)nc(N3CCOCC3)n2)cn1 [Compound 535] | < 1000
Nc1ncc(-c2nc(N3CCOCC3)ncc2C(=O)N2CCCC2)cn1 [Compound 425] | < 10000
Nc1ccc(-c2cc(NCCc3cccnc3)nc(N3CCOCC3)n2)cn1 [Compound 434] | < 10000
Nc1cc(C(F)(F)F)c(-c2cc(N3CCOCC3c3ccccc3)nc(N3CCOCC3)n2)cn1 (stereo not shown) [Compound 486] | < 1000
CS(=O)(=O)c1cccc(-c2cc(-c3cnc(N)cc3-c3nn[nH]n3)nc(N3CCOCC3)n2)c1 [Compound 414] | < 1000
Nc1ccc(-c2nc(N3CCOCC3)ncc2C(F)(F)F)cn1 [Compound 473] | < 10000
CS(=O)(=O)Nc1cc(-c2ccc(N)nc2)nc(N2CCOCC2)n1 [Compound 510] | < 10000
Nc1ccc(-c2cc(Nc3cnc4c(Cl)ccc(OCCN5CCCC5=O)c4c3)nc(N3CCOCC3)n2)cn1 [Compound 493] | < 1000
CC(C)N1CCN(c2nc3ccccc3cc2-c2cc(-c3ccc(N)nc3)nc(N3CCOCC3)n2)CC1 [Compound 502] | < 10000
CC(C)C(=O)N1CC[C@H](Oc2cc(-c3cnc(N)cc3C(F)(F)F)nc(N3CCOCC3)n2)C1 [Compound 533] | < 10000
Nc1ncc(-c2nc(N3CCOCC3)ncc2C(=O)NCC2CCCO2)cn1 (stereo not shown) [Compound 421] | < 10000
CC(C)(C)OC(=O)N1CCC[C@@H](Oc2cc(-c3cnc(N)cc3C(F)(F)F)nc(N3CCOCC3)n2)C1 [Compound 21] | < 1000
CC(C)N1CCN(c2ccc(-c3cc(-c4ccc(N)nc4)nc(N4CCOCC4)n3)cn2)CC1 [Compound 507] | < 1000
Nc1ccc(-c2cc(NCc3ccccn3)nc(N3CCOCC3)n2)cn1 [Compound 444] | < 1000
